Source: patent US20230174523A1, “BENZENESULFONAMIDE DERIVATIVES AS TRAP1 MODULATORS AND USES THEREOF” (Amathus Therapeutics, Inc., priority 2020, published 2023)

How the values were obtained:
TRAP1 enzyme [1] = target: T1, TRAP1 enzyme (Homo sapiens, UniProt Q12931); assay: Malachite green phosphate assay of TRAP1 ATPase activity; type: biochemical; details: for EC50: TRAP1 ATPase activation, 150 nM Trap1, 20 μM ATP, geometric mean, read-out: Malachite Green Fluor DRC: GeoMean EC50; for Emax: read-out: Malachite Green Fluor DRC: Mean Emax
T1 sequence (Q12931 60-704): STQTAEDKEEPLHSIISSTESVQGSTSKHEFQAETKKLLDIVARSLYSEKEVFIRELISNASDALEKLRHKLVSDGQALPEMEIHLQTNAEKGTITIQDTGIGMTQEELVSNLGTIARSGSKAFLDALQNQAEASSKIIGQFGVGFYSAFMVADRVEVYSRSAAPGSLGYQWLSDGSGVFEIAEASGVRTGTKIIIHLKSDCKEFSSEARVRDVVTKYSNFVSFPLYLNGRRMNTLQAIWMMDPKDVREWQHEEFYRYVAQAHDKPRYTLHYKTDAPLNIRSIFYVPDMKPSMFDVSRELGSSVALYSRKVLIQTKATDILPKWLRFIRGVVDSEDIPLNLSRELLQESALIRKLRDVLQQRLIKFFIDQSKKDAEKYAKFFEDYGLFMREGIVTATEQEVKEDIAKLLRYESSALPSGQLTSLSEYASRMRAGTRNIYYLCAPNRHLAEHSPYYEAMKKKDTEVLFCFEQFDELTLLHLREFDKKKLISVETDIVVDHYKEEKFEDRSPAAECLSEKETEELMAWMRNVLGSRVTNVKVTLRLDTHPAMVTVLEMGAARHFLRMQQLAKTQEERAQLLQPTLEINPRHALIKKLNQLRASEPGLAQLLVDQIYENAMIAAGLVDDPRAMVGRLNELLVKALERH
Protocol: The Potency of test compounds to modulate the ATPase activity of TRAP1 enzyme was evaluated using malachite green phosphatase assay. The assay is based on quantification of the green complex formed between Malachite Green, molybdate and inorganic phosphate generated in the phosphatase reaction. Assays were performed using a Malachite Green assay kit. All the assays were carried out in a 96-well transparent plate. The buffer used was 50 mM HEPES (pH 7.5), 20 mM KCl, 4 mM MgCl2 and 0.05% BSA. 150 nM Trap1 enzyme was incubated with various concentrations of the test compound (0.78 μM-100 μM) at 37° C. for 30 mins. 20 μM ATP was added to each well (except blank wells) to start the reaction and the plate was then incubated at 37° C. for 180 mins. 10 μl of the reaction volume of each sample was then transferred to a white 384-well proxiplate in quadruplets. 2.5 μl of Malachite Green reagent was added to all the wells and the plate was equilibrated for 15 mins. The reaction was stopped by adding 12% H2SO4 and the plate was read for fluorescence at 620 nm (λex=573 nm). The amount of phosphate released was estimated from a phosphate standard curve generated at the same experimental conditions. Emax (Maximal percent activation) and EC50 (concentration of test compound for half maximal activation) were estimated by fitting the dose response data to a sigmoidal curve fitting equation using Graphpad Prism software V.7.0.

TRAP1 enzyme [2] = target: T1, TRAP1 enzyme; assay: ADP Glo assay of TRAP1 ATPase activity; type: biochemical; details: for EC50: TRAP1 ATPase activation, 150 nM Trap1, 20 μM ATP, geometric mean, read-out: ADP GLO DRC: GeoMean EC50; for Emax: read-out: ADP GLO DRC: Mean Emax
Procedure, shortened: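 150 nM TRAP1 preincubated with compound (0.79–100 μM) 30 min at 37° C in Pipes pH 7.5 buffer (0.05 mM MgCl2, 40 mM KCl), then 20 μM ATP added for 60 min at 37° C. ADP quantified by ADP-Glo luminescence against ATP/ADP standard curve. Emax and EC50 from sigmoidal fit.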

| Structure (SMILES) | EC50 (TRAP1 enzyme [1]) [µM] | Emax (TRAP1 enzyme [1]) [%] | EC50 (TRAP1 enzyme [2]) [µM] | Emax (TRAP1 enzyme [2]) [%] |
| --- | --- | --- | --- | --- |
| COc1ccc(NC(=O)c2ccccc2C(F)(F)F)cc1S(=O)(=O)N1CCCCC1 [Compound 41] | 10 to 20 | 160 to 199 | – | – |
| COc1ccc(NC(=O)c2cnccc2C)cc1S(=O)(=O)Nc1ccc(C)cc1 [Compound 54] | 20 to 100 | 160 to 199 | – | – |
| COc1ccc(NC(=O)c2cnccc2C)cc1S(=O)(=O)Nc1ccccc1C [Compound 64] | 20 to 100 | 160 to 199 | – | – |
| COc1ccc(NC(=O)c2cnco2)cc1S(=O)(=O)Nc1ccc(Br)cc1 [Compound 91, N-(3-(N-(4-bromophenyl)sulfamoyl)-4-methoxyphenyl) oxazole-5-carboxamide] | 20 to 100 | 160 to 199 | – | – |
| COc1ccc(NC(=O)c2cnc(C(F)(F)F)[nH]2)cc1S(=O)(=O)Nc1ccc(Br)cc1 [Compound 105] | 20 to 100 | 200 to 300 | – | – |
| CC(=O)c1c(C)[nH]c(C(=O)Nc2cccc(S(=O)(=O)N3CCCC3)c2)c1C [Compound 148] | 10 to 20 | 200 to 300 | – | – |
| COc1ccc(NC(=O)c2cnc(-c3ccccc3)[nH]2)cc1S(=O)(=O)N(C)c1ccc(Br)cc1 [Compound 164] | 20 to 100 | 160 to 199 | – | – |
| O=C(Nc1ccc(F)c(S(=O)(=O)Nc2ccc(Br)cc2)c1)c1cnc(-c2ccccc2)[nH]1 [Compound 168] | 10 to 20 | 200 to 300 | – | – |
| O=C(Nc1cccc(S(=O)(=O)Nc2ccc(Br)cc2)c1)c1cnc(-c2ccccc2)[nH]1 [Compound 169] | 10 to 20 | 200 to 300 | – | – |
| CCc1ccc(NC(=O)c2cnc(-c3ccccc3)[nH]2)cc1S(=O)(=O)Nc1ccc(Br)cc1 [Compound 170] | < 10 | 160 to 199 | – | – |
| COc1ccc(NC(=O)c2cnc(-c3ccccc3)[nH]2)cc1S(=O)(=O)Nc1ccc(F)cc1 [Compound 171] | < 10 | 200 to 300 | – | – |
| COc1ccc(NC(=O)c2ncco2)cc1S(=O)(=O)Nc1ccc(Br)cc1 [Compound 172] | < 10 | 160 to 199 | – | – |
| COc1ccc(NC(=O)c2cnc(-c3ccccc3)o2)cc1S(=O)(=O)Nc1ccc(Br)cc1 [Compound 185] | 10 to 20 | 160 to 199 | – | – |
| O=C(Nc1ccc(F)c(S(=O)(=O)Nc2ccc(Br)cc2)c1)c1cnc(C(F)(F)F)[nH]1 [Compound 186] | 20 to 100 | 200 to 300 | – | – |
| COc1ccc(NC(=O)c2cnc(-c3ccccc3)[nH]2)cc1S(=O)(=O)N1Cc2ccc(F)cc2C1 [Compound 200] | < 10 | 160 to 199 | – | – |
| COc1ccc(NC(=O)c2cnc(-c3ccccc3)[nH]2)cc1S(=O)(=O)Nc1ccccc1C [Compound 201] | 10 to 20 | 160 to 199 | – | – |
| COc1ccc(NC(=O)c2cnc(-c3ccccc3)[nH]2)cc1S(=O)(=O)Nc1ccncc1 [Compound 213] | 20 to 100 | 160 to 199 | – | – |
| CCc1ccc(NC(=O)c2cnc(C(F)(F)F)[nH]2)cc1S(=O)(=O)Nc1ccc(Br)cc1 [Compound 216] | < 10 | 200 to 300 | – | – |
| O=C(Nc1ccc(F)c(S(=O)(=O)Nc2ccc(F)cc2)c1)c1cnc(C(F)(F)F)[nH]1 [Compound 220] | 10 to 20 | 160 to 199 | – | – |
| COc1ccc(NC(=O)c2cnc(C(F)(F)F)[nH]2)cc1S(=O)(=O)Nc1ccccc1 [Compound 223] | 10 to 20 | 160 to 199 | – | – |
| COc1ccc(NC(=O)c2cnc(C(F)(F)F)[nH]2)cc1S(=O)(=O)Nc1ccc(C)cc1 [Compound 224] | 20 to 100 | 123 to 159 | – | – |
| COc1ccc(NC(=O)c2cnc(C(F)(F)F)[nH]2)cc1S(=O)(=O)N1Cc2cccc(F)c2C1 [Compound 225] | 10 to 20 | 160 to 199 | – | – |
| O=C(Nc1cccc(S(=O)(=O)Nc2ccc(Br)cc2)c1)c1cnc(C(F)(F)F)[nH]1 [Compound 228] | 10 to 20 | 200 to 300 | – | – |
| COc1ccc(NC(=O)c2cnc(-c3ccsc3)[nH]2)cc1S(=O)(=O)Nc1ccc(Cl)cc1 [Compound 1482] | – | – | < 10 | 160 to 199 |
| COc1ccc(NC(=O)c2ncc(-c3ccccc3)o2)cc1S(=O)(=O)Nc1c(C)cc(C)nc1C [Compound 1575] | – | – | 20 to 100 | 123 to 159 |
| COc1ccc(NC(=O)c2ncc(-c3ccccc3)o2)cc1S(=O)(=O)Nc1c(C)ccc2ncccc12 [Compound 1605] | – | – | < 10 | 160 to 199 |
| COc1ccc(NC(=O)c2ncc(-c3ccccc3)o2)cc1S(=O)(=O)Nc1c(C)ccnc1OC [Compound 1666] | – | – | 10 to 20 | 123 to 159 |
| COc1ccc(NC(=O)c2csc3c2C2CCN3CC2)cc1S(=O)(=O)Nc1c(C)cccc1C [Compound 1945] | – | – | 10 to 20 | 160 to 199 |

Next, values leading:

| EC50 (TRAP1 enzyme [1]) [µM] | Emax (TRAP1 enzyme [1]) [%] | EC50 (TRAP1 enzyme [2]) [µM] | Emax (TRAP1 enzyme [2]) [%] | Structure (SMILES) |
| --- | --- | --- | --- | --- |
| – | – | 10 to 20 | 160 to 199 | COc1ccc(NC(=O)c2ncc(-c3ccccc3)o2)cc1S(=O)(=O)Nc1sc2c(c1C#N)CCCC2 [Compound 1671] |
| – | – | 10 to 20 | 160 to 199 | COc1ccc(NC(=O)c2ncc(-c3ccccc3)o2)cc1S(=O)(=O)Nc1sc(C)c(C)c1C#N [Compound 1672] |
| – | – | 20 to 100 | 123 to 159 | COc1ccc(NC(=O)c2ncc(-c3ccccc3)o2)cc1S(=O)(=O)Nc1ccc(C)nc1F [Compound 1684] |
| – | – | < 10 | 160 to 199 | COc1ccc(NC(=O)c2ncc(-c3ccccc3)o2)cc1S(=O)(=O)Nc1c(C)csc1C [Compound 1693] |
| – | – | 20 to 100 | 123 to 159 | CCc1nccc(C)c1NS(=O)(=O)c1cc(NC(=O)c2ncc(-c3ccccc3)o2)ccc1OC [Compound 1697] |
| – | – | 10 to 20 | 200 to 300 | COc1ccc(NC(=O)c2ncc(-c3ccccc3)o2)cc1S(=O)(=O)Nc1cccc(C(F)(F)F)n1 [Compound 1805] |
| – | – | < 10 | 160 to 199 | COc1ccc(NC(=O)c2ncc(-c3ccccc3)o2)cc1S(=O)(=O)Nc1c(C(C)C)ccnc1C(C)C [Compound 1809] |
| – | – | 20 to 100 | 160 to 199 | COc1ccc(NC(=O)c2ncc(-c3ccccc3)o2)cc1S(=O)(=O)Nc1cc2ccccc2nn1 [Compound 1825] |
| – | – | < 10 | 200 to 300 | COc1ccc(NC(=O)c2cnc(-c3cccs3)[nH]2)cc1S(=O)(=O)Nc1ccc(Cl)cc1 [Compound 1938] |
| – | – | < 10 | 160 to 199 | COc1ccc(NC(=O)c2cnc(-c3cccnc3OC)[nH]2)cc1S(=O)(=O)Nc1ccc(Cl)cc1 [Compound 1951] |
| – | – | 20 to 100 | 160 to 199 | COc1ccc(NC(=O)c2cocn2)cc1S(=O)(=O)Nc1ccc(Cl)cc1 [Compound 1961] |
| – | – | 20 to 100 | 160 to 199 | COc1ccc(NC(=O)c2ccc(C)nc2OC)cc1S(=O)(=O)Nc1ccc(Cl)cc1 [Compound 1963] |
| – | – | 10 to 20 | 200 to 300 | COc1ccc(NC(=O)c2cnc(-c3c(OC)cccc3OC)[nH]2)cc1S(=O)(=O)Nc1ccc(Cl)cc1 [Compound 1969] |
| – | – | < 10 | 200 to 300 | COc1ccc(NC(=O)c2cnc(-c3ccccc3C)[nH]2)cc1S(=O)(=O)Nc1ccc(Cl)cc1 [Compound 1971] |
| – | – | < 10 | 123 to 159 | COc1ccc(NC(=O)c2csc(-c3ccccc3)n2)cc1S(=O)(=O)N(CC(O)CO)c1ccc(Cl)cc1 (stereo not shown) [Compound 2404] |
| – | – | < 10 | 123 to 159 | COc1ccc(NC(=O)c2csc(-c3cc(F)c(F)c(F)c3)n2)cc1S(=O)(=O)Nc1c(C)csc1C [Compound 2406] |
| – | – | < 10 | 123 to 159 | COc1ccc(NC(=O)c2coc(-c3cc(F)c(F)c(F)c3)n2)cc1S(=O)(=O)Nc1c(C)csc1C [Compound 2415] |
| – | – | 10 to 20 | 123 to 159 | COc1ccc(NC(=O)c2ncoc2C(C)C)cc1S(=O)(=O)Nc1ccc(Cl)cc1 [Compound 2476] |
| – | – | 20 to 100 | 123 to 159 | COc1ccc(NC(=O)c2ncc(-c3cc(F)c(F)c(F)c3)o2)cc1S(=O)(=O)Nc1c(C)csc1C [Compound 2519] |
